Measurements taken from patent publication US6495152B2, “Sulfur containing polyhydroxyalkanoate compositions and method of production” (Tepha, Inc., priority 2000, dated 2002).

Key:
R. eutropha = experiment: Growth experiments in mineral salts medium with sulfur-containing carbon sources; assay type: cell-based, R. eutropha H16; conditions: for Use as sole carbon source for growth: R. eutropha strain H16
Protocol: Bacterial strains and culture conditions. R. eutropha H16 (DSM 428) and R. eutropha PHB^−4 (DSM 541) were cultivated in nutrient broth (NB) growth medium or in mineral salts medium (MSM) (Schlegel et al., (1961) Arch. Mikrobiol. 38, 209-222) at 30° C. in Erlenmeyer flasks under aerobic conditions on a rotary shaker with 130 strokes/min. In order to promote PHA accumulation, the ammonia concentration was reduced to 0.05% (w/v). Carbon sources were added from filter-sterilized 20% (w/v) stock solutions at the concentrations indicated in the text.
Bacterial strains and culture conditions. R. eutropha H16 (DSM 428) and R. eutropha PHB-4 (DSM 541) were cultivated in nutrient broth (NB) growth medium or in mineral salts medium (MSM) (Schlegel, 1961, supra) at 30° C. in Erlenmeyer flasks under aerobic conditions on a rotary shaker with 130 strokes/min. In order to promote PHA accumulation, the ammonia concentration was reduced to 0.05% (w/v). Carbon sources were added from filter-sterilized stock solutions at the concentrations indicated in the text.

P. putida = experiment: Growth on MSM agar plates containing ATAs as sole carbon sources; assay type: cell-based, Pseudomonas putida KT2440; parameters: key to Growth on MSM agar plates: +: growth; ++: good growth; −: no growth; *: thiol odor detected; conditions: sole carbon source; for Growth on MSM agar plates: P. putida
Description: (§1) Bacterial strains and culture conditions. The PHA-negative mutant R. eutropha PHB^−4 (DSM 541) and a recombinant strain of R. eutropha PHB^−4 harbouring plasmid pBBR1::phaC1 expressing the PHA synthase 1 of Pseudomonas mendocina, as well as Pseudomonas putida KT2440 (Worsey & Williams, “Metabolism of toluene and xylenes by Pseudomonas putida (arvilla) mt-2: evidence for a new function of the TOL plasmid” in J Bacteriol 124:7-13 (1975)), P. aeruginosa PAO1 (ATCC 15692), P. oleovorans (ATCC 29347), and P. mendocina (DSM 50017) were used. Cultivations were performed in nutrient broth (NB) medium or mineral salts medium (MSM) according to Schlegel (1961), supra, to which different alkylthioalkanoic acids were added as carbon sources from filter-sterilized 10% (w/v) stock solutions at the concentrations indicated in the text. Fed batch cultivations were carried out under aerobic conditions at 30° C. in 2 l Erlenmeyer flasks containing 500 ml of medium which were agitated at 130 r.p.m. In order to promote PHA accumulation, the ammonia concentration was reduced to 0.05% (w/v) in MSM.
(§2) Growth and PHA accumulation of bacteria on alkylthioalkanoic acids. To evaluate the capabilities of various pseudomonades to use alkylthioalkanoic acids (ATAs) as carbon and energy sources for the synthesis of sulfur containing PHAs, growth experiments were carried out employing MSM agar plates which contained propylthioundecanoic acid (PTUD), propylthiooctanoic acid (PTO), octylthiohexanoic acid (OTHx), butylthiovaleric acid (BTV), or propylthiopropionic acid (PTP) as carbon sources.

P. mendocina = experiment: as above; assay type: cell-based, Pseudomonas mendocina; parameters: key: +: growth; ++: good growth; −: no growth; *: thiol odor detected; conditions: sole carbon source
Description: as §1, §2

P. aeruginosa = experiment: as above; assay type: cell-based, Pseudomonas aeruginosa PAO1; parameters: key: +: growth; ++: good growth; −: no growth; *: thiol odor detected; conditions: sole carbon source
Description: as §1, §2

P. oleovorans = experiment: as above; assay type: cell-based, Pseudomonas oleovorans; parameters: key: +: growth; ++: good growth; −: no growth; *: thiol odor detected; conditions: sole carbon source
Description: as §1, §2

Pseudomonas strains = experiment: Growth experiments of pseudomonades on alkylthioalkanoic acids; assay type: cell-based; conditions: for Use as sole carbon source for growth: all Pseudomonas strains investigated; for Concentration above which cell growth was impaired: pseudomonades
Description: as §1, §2

[1] = test system: R. eutropha PHB-4 harboring pBBR1::phaC1; experiment: Growth in MSM containing PTO as the sole carbon source; assay type: cell-based
Description: as §1
Since growth of R. eutropha PHB-4 harboring pBBR1::phaC1 in MSM containing PTO as the sole carbon source was very poor, cultivations were carried out in complex medium (NB) or in MSM containing sodium gluconate as second utilizable carbon source in addition to PTO. […]

## CC(S)CC(=O)O (stereo not shown) [3-mercaptobutyric acid]
R. eutropha
  Use as sole carbon source for growth: not able to use

## O=C(O)CCS [3-mercaptopropionic acid]
R. eutropha
  Use as sole carbon source for growth: not able to use
R. eutropha; mineral salts medium plus readily utilized carbon source such as gluconic acid, R. eutropha and other bacteria
  Concentration in the medium above which growth was impaired: higher than 0.1 % (w/v)

## CCCCSCCCCC(=O)O [BTV]
P. putida; 0.3% (w/v)
  Growth on MSM agar plates: +*
P. mendocina; 0.3% (w/v)
  Growth on MSM agar plates: +*
P. aeruginosa; 0.3% (w/v)
  Growth on MSM agar plates: +*
P. oleovorans; 0.3% (w/v)
  Growth on MSM agar plates: +*
Pseudomonas strains
  Use as sole carbon source for growth: able to use
  Concentration above which cell growth was impaired: > 0.4 % (w/v)

## O=C(O)CCSCCC(=O)O [TDP, 3,3′-thiodipropionic acid]
R. eutropha
  Use as sole carbon source for growth: not able to use
R. eutropha; mineral salts medium plus readily utilized carbon source such as gluconic acid
  Concentration up to which no toxic effects on growth were exerted: ≤ 1.5 % (w/v)

## octylthiohexanoic acid [OTHx]
P. putida; 0.6% (w/v)
  Growth on MSM agar plates: ++
P. mendocina; 0.6% (w/v)
  Growth on MSM agar plates: ++
P. aeruginosa; 0.6% (w/v)
  Growth on MSM agar plates: ++
P. oleovorans; 0.6% (w/v)
  Growth on MSM agar plates: ++
Pseudomonas strains
  Use as sole carbon source for growth: able to use

## propylthiooctanoic acid [PTO]
P. putida; 0.4% (w/v)
  Growth on MSM agar plates: +
P. mendocina; 0.4% (w/v)
  Growth on MSM agar plates: ++
P. aeruginosa; 0.4% (w/v)
  Growth on MSM agar plates: +
P. oleovorans; 0.4% (w/v)
  Growth on MSM agar plates: +
Pseudomonas strains
  Use as sole carbon source for growth: able to use
  Concentration above which cell growth was impaired: higher than 0.8 % (w/v)
[1]
  Growth with the substance as the sole carbon source: very poor

## propylthiopropionic acid [PTP]
P. putida; 0.2% (w/v)
  Growth on MSM agar plates: −
P. mendocina; 0.2% (w/v)
  Growth on MSM agar plates: −
P. aeruginosa; 0.2% (w/v)
  Growth on MSM agar plates: −
P. oleovorans; 0.2% (w/v)
  Growth on MSM agar plates: −
Pseudomonas strains
  Use as sole carbon source for growth: not used by any bacterium for growth

## propylthioundecanoic acid [PTUD]
P. putida; P. putida KT2440
  Growth in comparison to other pseudomonades: significantly lower
P. putida; 0.4% (w/v)
  Growth on MSM agar plates: +*
P. mendocina; 0.4% (w/v)
  Growth on MSM agar plates: ++*
P. aeruginosa; 0.4% (w/v)
  Growth on MSM agar plates: ++*
P. oleovorans; 0.4% (w/v)
  Growth on MSM agar plates: ++*
Pseudomonas strains
  Use as sole carbon source for growth: able to use
